Experimental data taken from ChEMBL document CHEMBL5244272 (Eur J Med Chem, 2021).
In brackets after ≈: the same amount, converted by molar mass.

Key:
Plasmodium falciparum [1] = experiment: Antimalarial activity against Plasmodium falciparum 3D7; format: functional, organism-based
Plasmodium chabaudi = experiment: Antimalarial activity against Plasmodium chabaudi infected in mouse; format: functional
Plasmodium falciparum [2] = experiment: Antimalarial activity against Plasmodium falciparum K1; format: functional, organism-based
Plasmodium falciparum [3] = experiment: Antimalarial activity against Plasmodium falciparum HB3; format: functional, organism-based
Plasmodium falciparum [4] = experiment: Antimalarial activity against ART-sensitive Plasmodium falciparum NF54; format: functional, organism-based
Plasmodium falciparum [5] = experiment: Antimalarial activity against Plasmodium falciparum IPC4912; format: functional, organism-based
Plasmodium falciparum [6] = experiment: Antimalarial activity against Plasmodium falciparum IPC5202; format: functional, organism-based
Plasmodium falciparum [7] = experiment: Antimalarial activity against Plasmodium falciparum SGE2; format: functional, organism-based
Plasmodium falciparum [8] = experiment: Antimalarial activity against ART-resistant Plasmodium falciparum Dd2 harboring R539T mutant; format: functional, organism-based
Plasmodium falciparum [9] = experiment: Antimalarial activity against Plasmodium falciparum Dd2; format: functional, organism-based
Plasmodium falciparum [10] = experiment: Antimalarial activity against ART-resistant Plasmodium falciparum NF54 harboring […] mutant; format: functional, organism-based
Plasmodium falciparum [11] = experiment: Antimalarial activity against Plasmodium falciparum IV-V gametocytes; format: functional, organism-based
Plasmodium falciparum [12] = experiment: Antimalarial activity against ART-sensitive Plasmodium falciparum W2; format: functional, organism-based
Plasmodium berghei [13] = experiment: Antimalarial activity against Plasmodium berghei infected in mouse; format: functional; settings: for ED50: Plasmodium berghei
Plasmodium berghei [14] = experiment: Antimalarial activity against Plasmodium berghei infected in mouse assessed cured animal rate measured after 25 days; format: functional; settings: time 25 day
Plasmodium falciparum [15] = experiment: Antimalarial activity against ART-resistant Plasmodium falciparum harboring R539T mutant assessed as increase in survival at 700 nM; format: functional
Plasmodium falciparum [16] = experiment: Antimalarial activity against Plasmodium falciparum NF54; format: functional, organism-based
Plasmodium berghei [17] = experiment: Antimalarial activity against Plasmodium berghei infected in mouse assessed reduction in parasitemia measured after 4 days; format: functional; set-up: scale not given: the % may be the effect or the level left; settings: time 4 day
Plasmodium berghei [18] = experiment: Antimalarial activity against Plasmodium berghei infected in mouse assessed increase in survival time; format: functional
Plasmodium berghei [19] = experiment: Antimalarial activity against Plasmodium berghei K173 infected in mouse; format: functional; settings: Plasmodium berghei, K173
Plasmodium berghei [20] = experiment: Potency index, ratio of artesunic acid ED50 to test compound ED50 for Plasmodium berghei; format: functional
Plasmodium falciparum [21] = experiment: Potency index, ratio of artesunate IC50 to test compound IC50 for Plasmodium falciparum NF54; format: functional
Plasmodium falciparum [22] = experiment: Antimalarial activity against chloroquine-sensitive Plasmodium falciparum NF54; format: functional, organism-based
Plasmodium berghei [23] = experiment: Antimalarial activity against Plasmodium berghei infected in Swiss mouse at 2 mg/kg/day, po; format: functional
Plasmodium falciparum [24] = experiment: Antimalarial activity against Plasmodium falciparum W2; format: functional, organism-based
[25] = Half life in human; format: ADME
Plasmodium berghei [26] = experiment: Antimalarial activity against Plasmodium berghei infected in sc dosed mouse; format: functional; settings: Plasmodium berghei
Plasmodium falciparum [27] = experiment: Antimalarial activity against Plasmodium falciparum D6; format: functional, organism-based
Plasmodium falciparum [28] = experiment: Antimalarial activity against chloroquine-sensitive Plasmodium falciparum HB3; format: functional, organism-based
Plasmodium falciparum [29] = experiment: Antimalarial activity against chloroquine sensitive Plasmodium falciparum FCR-3; format: functional, organism-based
Plasmodium berghei [30] = experiment: Antimalarial activity against Plasmodium berghei N strain infected in mouse at 30 mg/kg, ip administered once daily for 4 days; format: functional; settings: time 4 day
Plasmodium falciparum [31] = experiment: Antimalarial activity against chloroquine resistant Plasmodium falciparum; format: functional, organism-based
Plasmodium falciparum [32] = experiment: Potency index, ratio of artesunate IC50 to test compound IC50 for chloroquine resistant Plasmodium falciparum; format: functional
Plasmodium falciparum [33] = experiment: Antimalarial activity against Plasmodium falciparum; format: functional, organism-based
Plasmodium falciparum [34] = experiment: Antimalarial activity against late stage Plasmodium falciparum gametocytes; format: functional, organism-based
Plasmodium falciparum [35] = experiment: Antimalarial activity against Plasmodium falciparum RKL2; format: functional, organism-based
[36] = Selectivity index, ratio of IC50 for HEK293 cells to IC50 for Plasmodium falciparum INDO; format: toxicity; settings: human, read-out: Ratio IC50
Plasmodium falciparum [37] = experiment: Antimalarial activity against Plasmodium falciparum INDO; format: functional, organism-based
Plasmodium falciparum [38] = experiment: Potency index, ratio of chloroquine IC50 to test compound IC50 for Plasmodium falciparum INDO; format: functional
[39] = Cytotoxicity against HEK293 cells; format: toxicity, cell-based; settings: human
[40] = read-out: ED50 (the source's name)

## C[C@H]1[C@@H](CCc2ccc(C(=O)O)cc2)O[C@@H]2O[C@]3(C)CC[C@H]4[C@H](C)CC[C@@H]1[C@@]24OO3
Plasmodium falciparum [1]; [40]
  EC50: 1.1 ng/mL (≈ 2.64 nM)
Plasmodium chabaudi
  Activity: 98.7%
Plasmodium falciparum [2]; [40]
  EC50: 0.6 ng/mL

## C[C@H]1[C@@H](O)O[C@@H]2O[C@@]3(C)CC[C@H]4[C@H](C)CC[C@@H]1[C@@]24OO3 [ARTENIMOL]
Plasmodium falciparum [3]
  IC50: 5 nM
Plasmodium falciparum [4]
  IC50: 1.5 nM
Plasmodium falciparum [1]
  IC50: 4.7 nM
Plasmodium falciparum [5]
  IC50: 3.7 nM
Plasmodium falciparum [6]
  IC50: 6.2 nM
Plasmodium falciparum [7]
  IC50: 9 nM
Plasmodium falciparum [8]
  IC50: 1.4 nM
Plasmodium falciparum [9]
  IC50: 4.2 nM
Plasmodium falciparum [10]
  IC50: 1.1 nM
Plasmodium falciparum [11]
  IC50: 440 nM
Plasmodium falciparum [12]
  IC50: 1 nM
Plasmodium berghei [13]
  ED50: 1.15 mg/kg

## CC(C)(N)CNC(=O)C[C@H]1CC[C@]2(CC1)OO[C@]1(O2)C2CC3CC(C2)CC1C3 [OZ277]
Plasmodium berghei [14]
  Activity: 60%
Plasmodium falciparum [15]
  Activity: 0.01%
Plasmodium berghei [13]
  Activity: 67%

## Oc1ccc(C2CCC3(CC2)OOC2(OO3)C3CC4CC(C3)CC2C4)cc1CN1CCCC1 (configuration not stated)
Plasmodium falciparum [16]
  IC50: 4.8 nM
Plasmodium berghei [17]
  Activity: >99.7%
Plasmodium falciparum [2]
  IC50: 4.8 nM
Plasmodium berghei [18]
  Time: 25 days

## CC(O[C@H]1O[C@@H]2O[C@@]3(C)CC[C@H]4[C@H](C)CC[C@@H]([C@H]1C)[C@@]24OO3)c1ccc(CN2CCOCC2)c(O)c1 (some centres not stated)
Plasmodium berghei [13]
  ED50: 0.64 mg/kg/day
Plasmodium berghei [19]
  ED50: 0.64 mg/kg/day
Plasmodium berghei [20]
  Ratio ED50: 10

## C[C@H]1[C@H](OC(=O)c2cccc3c2OCO3)O[C@@H]2O[C@]3(C)CC[C@H]4[C@H](C)CC[C@@H]1[C@@]24OO3
Plasmodium falciparum [21]
  Ratio IC50: 2.3
Plasmodium falciparum [22]
  IC50: 8.08 nM

## CC(C)(N)CNC(=O)O[C@@H]1CCC[C@]2(C1)OOC1(O2)C2CC3CC(C2)CC1C3 (some centres not stated)
Plasmodium berghei [23]
  Activity: 100%
Plasmodium falciparum [24]
  IC50: 1.8 nM

## C[C@@H]1CC[C@H]2[C@@H](C)C(=O)O[C@@H]3O[C@@]4(C)CC[C@@H]1[C@]32OO4 [ARTEMISININ]
Plasmodium falciparum [3]
  IC50: 7 nM
[25]
  half-life: 2 h
Plasmodium berghei [26]
  ED50: 3 mg/kg
Plasmodium falciparum [27]
  IC50: 55 nM
Plasmodium falciparum [22]
  IC50: 18.4 nM
Plasmodium falciparum [7]
  IC50: 9 nM
Plasmodium falciparum [28]
  IC50: 3.04 nM
Plasmodium falciparum [9]
  IC50: 13 nM
Plasmodium falciparum [29]
  IC50: 1.4 nM
Plasmodium falciparum [2]; read-out: EC50
  EC50: 3.6 nM
Plasmodium berghei [30]
  Activity: 74.5%
Plasmodium falciparum [31]
  IC50: 0.001 mg/cm3

## C[C@H]1[C@H](CCCO)O[C@@H]2O[C@]3(C)CC[C@H]4[C@H](C)CC[C@@H]1[C@@]24OO3
Plasmodium falciparum [32]
  Ratio IC50: 5
Plasmodium falciparum [33]
  IC50: 0.23 ng/mL (≈ 0.705 nM)

## C[C@@H]1CC[C@H]2[C@@H](C)C(=O)N(S(=O)(=O)c3cccs3)[C@@H]3O[C@]4(C)CC[C@@H]1[C@@]23OO4
Plasmodium falciparum [34]
  IC50: 8.6 nM
Plasmodium falciparum [16]
  IC50: 5.68 nM
Plasmodium falciparum [24]
  IC50: 4.26 nM
Plasmodium falciparum [2]
  IC50: 6.27 nM

## CC1(C)OOC(c2ccccc2)(c2ccccc2)OO1
Plasmodium falciparum [35]
  IC50: 3910 ng/mL (≈ 14300 nM)

## C=C(c1ccc2c(c1)CCCC2)C1COC2(CCCCC2)OO1 (configuration not stated)
[36]
  selectivity ratio: 589
Plasmodium falciparum [37]
  IC50: 51 nM
Plasmodium falciparum [38]
  Ratio IC50: 11
[39]
  CC50: 30100 nM
